Laboratory results: US9308262B2, “Pharmaceutical composition for administration to nails” (NOVALIQ GMBH, priority 2011, dated 2016)

Assay: Penetration of drug from SFA-based carrier into excised human toe nails
Assay type: in vitro ADME
Settings: for depth below the nail surface at which significant tacrolimus concentrations were found: 1 mg/mL tacrolimus in F6H8 with 3.8 wt.-% ethanol, 1,000 min, 40 μm slices
Experimental: Tacrolimus was dissolved in a liquid carrier comprising F6H8 and 3.8 wt.-% ethanol to obtain a clear solution having a tacrolimus concentration of 1 mg/mL. The composition was used to evaluate the penetration of tacrolimus from an SFA-based carrier into human nails.
Excised human toe nails were obtained and washed in isotonic sodium chloride solution. For each nail, a filter membrane of 16 mm in diameter (2.01 cm^2) was loaded with 30 μL of the test solution, placed onto the nail and incubated for 1,000 min. At the end of the period, the remaining amount of the test solution in the filter and on the nail was collected. From each nail, punch biopsies of 5 mm in diameter (0.1963 cm^2) were obtained. The punch biopsies were frozen and microtomised at −40° C. into 20 horizontal slices of 40 μm thickness. Each slice was extracted and analysed for tacrolimus by HPLC-MS, as were the collected amounts of non-permeated formulation.
The experiment of Example 1 was repeated, except that a solution of ciclopiroxolamine was used instead of a tacrolimus solution. The test composition contained 1% (w/v) of ciclopiroxolamine dissolved in a vehicle of F6H8 and ethanol (85/15 wt.-%).

Row | SMILES | depth distribution of ciclopiroxolamine in the nail matrix (1% (w/v) ciclopiroxolamine in F6H8 and ethanol (85/15 wt.-%), 1,000 min) | fraction of the administered amount of ciclopiroxolamine found in the nail matrix (1% (w/v) ciclopiroxolamine in F6H8 and ethanol (85/15 wt.-%), 1,000 min incubation) [%] | depth below the nail surface at which significant tacrolimus concentrations were found [μm] | depth below the nail surface at which significant tacrolimus concentrations were found (listed as Tacrolimus) [μm] | total amount of tacrolimus found in the nails, relative to the administered dose (30 μL of 1 mg/mL tacrolimus solution in F6H8 with 3.8 wt.-% ethanol, 1,000 min incubation, HPLC-MS)
1 | Cc1cc(C2CCCCC2)n(O)c(=O)c1 [ciclopiroxolamine] | Significant amounts of drug were found throughout the depth of the nail matrix | 49.5 | – | – | –
2 | C=CC[C@@H]1/C=C(\C)C[C@H](C)C[C@H](OC)[C@H]2O[C@@](O)(C(=O)C(=O)N3CCCC[C@H]3C(=O)O[C@H](/C(C)=C/[C@@H]3CC[C@@H](O)[C@H](OC)C3)[C@H](C)[C@@H](O)CC1=O)[C@H](C)C[C@@H]2OC [tacrolimus] | – | – | 400 | ≥ 400 | approx. 9%
